Data from paper PMC5267425, “Identification of small molecule modulators of HIV-1 Tat and Rev protein accumulation” (Retrovirology, 2017).
“And” between values parts separate entries of the source, which are not always exact repeats. Identical values can stand only once.

System: cellular gene expression in HeLa rtTA HIV∆Mls cells
Conditions: 9147791-treated cells, two replicates

Structure (SMILES): Cc1cc(NCc2cccnc2)n2ncc(-c3ccc(Cl)cc3)c2n1 [Compound 791, 3-(4-chlorophenyl)-5-methyl-N-(3-pyridinylmethyl)pyrazolo[1,5-a]pyrimidin-7-amine]
- ACER2 expression level (gene ACER2): 0.80 and 0.82
- ADO expression level (gene ADO): 10.11 and 9.67
- AKIRIN2 expression level (gene AKIRIN2): 37.74 and 36.76
- ALG5 expression level (gene ALG5): 17.63 and 17.19
- ALKBH8 expression level (gene ALKBH8): 2.78 and 2.65
- ANKRD40 expression level (gene ANKRD40): 18.60 and 17.61
- ANKRD50 expression level (gene ANKRD50): 8.61 and 9.09
- AP3S2 expression level (gene AP3S2): 6.99 and 6.84
- ARL4D expression level (gene ARL4D): 11.90 and 11.09
- ARMC10 expression level (gene ARMC10): 25.33 and 26.90
- ARSJ expression level (gene ARSJ): 5.86 and 6.05
- ATG4B expression level (gene ATG4B): 24.43 and 25.27
- ATP6V1B2 expression level (gene ATP6V1B2): 44.15 and 44.20
- AUP1 expression level (gene AUP1): 93.65 and 90.36
- AVL9 expression level (gene AVL9): 14.40 and 14.91
- AXIN1 expression level (gene AXIN1): 20.61 and 19.36
- B4GALT5 expression level (gene B4GALT5): 32.71 and 30.46
- BCL7A expression level (gene BCL7A): 4.81 and 5.05
- BICD1 expression level (gene BICD1): 5.82 and 5.80
- BIVM expression level (gene BIVM): 26.38 and 27.51
- BMP2K expression level (gene BMP2K): 8.20 and 7.95
- C1orf27 expression level (gene C1orf27): 10.72 and 10.90
- C1orf103 expression level (gene C1orf103): 11.43 and 11.72
- C1orf131 expression level (gene C1orf131): 8.80 and 9.06
- C2orf49 expression level (gene C2orf49): 7.96 and 8.04
- C3orf19 expression level (gene C3orf19): 6.85 and 6.46
- C4orf27 expression level (gene C4orf27): 19.50 and 20.20
- C5orf37 expression level (gene C5orf37): 8.35 and 8.03
- C5orf45 expression level (gene C5orf45): 14.96 and 13.97
- C5orf51 expression level (gene C5orf51): 28.44 and 30.27
- C7orf23 expression level (gene C7orf23): 28.60 and 29.63
- C7orf25 expression level (gene C7orf25): 13.24 and 13.90
- C9orf6 expression level (gene C9orf6): 11.84 and 11.91
- C9orf46 expression level (gene C9orf46): 19.83 and 20.30
- C11orf57 expression level (gene C11orf57): 12.07 and 11.50
- C11orf73 expression level (gene C11orf73): 35.63 and 36.75
- C12orf35 expression level (gene C12orf35): 5.77 and 5.55
- C12orf65 expression level (gene C12orf65): 14.51 and 14.73
- C12orf73 expression level (gene C12orf73): 7.32 and 7.68
- C13orf23 expression level (gene C13orf23): 12.32 and 12.36
- C16orf72 expression level (gene C16orf72): 10.69 and 10.57
- C17orf80 expression level (gene C17orf80): 10.34 and 10.65
- C18orf25 expression level (gene C18orf25): 6.56 and 6.86
- C18orf45 expression level (gene C18orf45): 4.86 and 5.04
- C19orf55 expression level (gene C19orf55): 5.99 and 6.29
- CCBL2 expression level (gene CCBL2): 14.25 and 13.62
- CCDC25 expression level (gene CCDC25): 31.76 and 30.83
- CCDC92 expression level (gene CCDC92): 12.03 and 11.64
- CCNJ expression level (gene CCNJ): 2.94 and 2.91
- CDK4 expression level (gene CDK4): 162.09 and 164.93
- CDK17 expression level (gene CDK17): 8.04 and 8.39
- CHCHD4 expression level (gene CHCHD4): 19.84 and 19.36
- CHN2 expression level (gene CHN2): 1.42 and 1.50
- CLCN2 expression level (gene CLCN2): 5.16 and 5.28
- COG1 expression level (gene COG1): 10.28 and 10.86
- COX19 expression level (gene COX19): 6.58 and 7.00
- CREB1 expression level (gene CREB1): 5.06 and 4.95
- CSGALNACT2 expression level (gene CSGALNACT2): 10.98 and 11.46
- CSNK2A1 expression level (gene CSNK2A1): 37.86 and 40.21
- CSRNP2 expression level (gene CSRNP2): 6.76 and 6.32
- CUEDC2 expression level (gene CUEDC2): 42.63 and 44.50
- DCI expression level (gene DCI): 60.10 and 62.67
- DCLRE1A expression level (gene DCLRE1A): 9.19 and 9.37
- DDB2 expression level (gene DDB2): 110.42 and 109.59
- DDX50 expression level (gene DDX50): 29.08 and 28.13
- DENND4B expression level (gene DENND4B): 17.80 and 17.11
- DET1 expression level (gene DET1): 3.28 and 3.58
- DGKQ expression level (gene DGKQ): 6.10 and 5.97
- DLG4 expression level (gene DLG4): 6.58 and 6.74
- DNAJB14 expression level (gene DNAJB14): 5.32 and 5.63
- DNASE2 expression level (gene DNASE2): 67.31 and 73.16
- DYM expression level (gene DYM): 17.92 and 17.95
- EDEM1 expression level (gene EDEM1): 13.02 and 13.54
- EIF2S3 expression level (gene EIF2S3): 260.44 and 268.10
- EPRS expression level (gene EPRS): 87.21 and 89.05
- ESCO1 expression level (gene ESCO1): 5.82 and 5.63
- ESRRA expression level (gene ESRRA): 58.60 and 54.56
- ETV6 expression level (gene ETV6): 3.21 and 3.17
- FAIM3 expression level (gene FAIM3): 2.34 and 2.22
- FAM83G expression level (gene FAM83G): 15.73 and 15.43
- FAM102A expression level (gene FAM102A): 15.44 and 14.97
- FAM107B expression level (gene FAM107B): 26.06 and 26.60
- FAM119B expression level (gene FAM119B): 5.44 and 5.43
- FAM176B expression level (gene FAM176B): 1.37 and 1.42
- FAM179B expression level (gene FAM179B): 3.35 and 3.46
- FAR1 expression level (gene FAR1): 21.55 and 22.22
- FBXO22 expression level (gene FBXO22): 18.71 and 19.58
- FBXW4 expression level (gene FBXW4): 11.10 and 10.83
- FEM1C expression level (gene FEM1C): 5.87 and 6.20
- FEZ2 expression level (gene FEZ2): 28.49 and 26.84
- FLCN expression level (gene FLCN): 15.28 and 15.93
- FLYWCH1 expression level (gene FLYWCH1): 20.36 and 21.57
- FOSL2 expression level (gene FOSL2): 35.73 and 35.26
- FOXF1 expression level (gene FOXF1): 7.56 and 7.55
- FOXJ2 expression level (gene FOXJ2): 9.27 and 9.86
- FXYD5 expression level (gene FXYD5): 112.40 and 117.32
- GATA5 expression level (gene GATA5): 1.79 and 1.70
- GJD3 expression level (gene GJD3): 4.71 and 4.56
- GNA13 expression level (gene GNA13): 17.15 and 16.92
- GORAB expression level (gene GORAB): 7.75 and 7.67
- GOSR1 expression level (gene GOSR1): 11.79 and 11.45
- GPC5 expression level (gene GPC5): 9.86 and 10.11
- GPD1L expression level (gene GPD1L): 13.45 and 13.69
- GTF2H3 expression level (gene GTF2H3): 21.55 and 22.21
- HAUS3 expression level (gene HAUS3): 7.54 and 8.11
- HAUS4 expression level (gene HAUS4): 59.72 and 63.77
- HDHD2 expression level (gene HDHD2): 9.17 and 8.71
- HECTD1 expression level (gene HECTD1): 31.75 and 32.77
- HIF1A expression level (gene HIF1A): 79.76 and 77.72
- HPS3 expression level (gene HPS3): 15.09 and 14.61
- HRSP12 expression level (gene HRSP12): 13.91 and 14.84
- HSD17B1 expression level (gene HSD17B1): 4.57 and 4.64
- IFNGR1 expression level (gene IFNGR1): 18.57 and 18.18
- INPP1 expression level (gene INPP1): 8.36 and 7.77
- IPO13 expression level (gene IPO13): 15.99 and 16.09
- IQCB1 expression level (gene IQCB1): 10.15 and 11.00
- KCTD1 expression level (gene KCTD1): 4.57 and 4.58
- KCTD13 expression level (gene KCTD13): 10.32 and 11.29
- KIAA0232 expression level (gene KIAA0232): 9.33 and 9.86
- KIAA0649 expression level (gene KIAA0649): 25.63 and 26.16
- KIAA0753 expression level (gene KIAA0753): 6.64 and 6.86
- KRR1 expression level (gene KRR1): 19.83 and 18.92
- LARS expression level (gene LARS): 72.55 and 69.28
- LGTN expression level (gene LGTN): 39.45 and 39.33
- LRP5L expression level (gene LRP5L): 3.26 and 3.08
- LRPPRC expression level (gene LRPPRC): 66.45 and 68.25
